Data taken from ChEMBL document CHEMBL2007661, “Compounds: GSK PKIS; Assays: UNC Frye lab” (2012).
Where “and” joins values, the source holds several entries; their conditions need not be identical. Identical values can stand only once.

How the values were obtained:
Details in all cases: at 1 µM
[1] = target: T1, Inhibitor of nuclear factor kappa-B kinase subunit beta (Homo sapiens) (UniProt O14920)
T1 sequence (whole entry): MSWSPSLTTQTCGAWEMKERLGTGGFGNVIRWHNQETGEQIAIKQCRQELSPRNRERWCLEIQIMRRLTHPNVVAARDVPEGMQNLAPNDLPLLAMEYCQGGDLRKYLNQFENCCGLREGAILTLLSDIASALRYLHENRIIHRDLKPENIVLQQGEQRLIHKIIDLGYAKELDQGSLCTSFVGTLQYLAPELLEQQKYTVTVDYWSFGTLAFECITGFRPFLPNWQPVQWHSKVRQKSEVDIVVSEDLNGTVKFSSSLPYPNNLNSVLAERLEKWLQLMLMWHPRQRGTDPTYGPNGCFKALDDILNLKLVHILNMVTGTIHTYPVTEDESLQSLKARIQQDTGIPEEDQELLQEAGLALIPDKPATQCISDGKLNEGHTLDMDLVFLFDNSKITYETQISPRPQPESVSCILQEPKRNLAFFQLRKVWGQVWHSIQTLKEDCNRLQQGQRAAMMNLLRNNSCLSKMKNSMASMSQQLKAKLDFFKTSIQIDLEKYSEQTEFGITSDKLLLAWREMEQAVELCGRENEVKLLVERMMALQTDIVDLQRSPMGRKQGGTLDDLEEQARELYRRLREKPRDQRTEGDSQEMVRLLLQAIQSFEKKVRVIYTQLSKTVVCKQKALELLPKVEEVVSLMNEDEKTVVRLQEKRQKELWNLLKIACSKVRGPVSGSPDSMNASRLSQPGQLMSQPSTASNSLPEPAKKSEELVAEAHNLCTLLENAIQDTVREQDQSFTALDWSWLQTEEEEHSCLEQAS

[2] = target: T2, Inhibitor of nuclear factor kappa-B kinase subunit alpha (Homo sapiens) (UniProt O15111)
T2 sequence (whole entry): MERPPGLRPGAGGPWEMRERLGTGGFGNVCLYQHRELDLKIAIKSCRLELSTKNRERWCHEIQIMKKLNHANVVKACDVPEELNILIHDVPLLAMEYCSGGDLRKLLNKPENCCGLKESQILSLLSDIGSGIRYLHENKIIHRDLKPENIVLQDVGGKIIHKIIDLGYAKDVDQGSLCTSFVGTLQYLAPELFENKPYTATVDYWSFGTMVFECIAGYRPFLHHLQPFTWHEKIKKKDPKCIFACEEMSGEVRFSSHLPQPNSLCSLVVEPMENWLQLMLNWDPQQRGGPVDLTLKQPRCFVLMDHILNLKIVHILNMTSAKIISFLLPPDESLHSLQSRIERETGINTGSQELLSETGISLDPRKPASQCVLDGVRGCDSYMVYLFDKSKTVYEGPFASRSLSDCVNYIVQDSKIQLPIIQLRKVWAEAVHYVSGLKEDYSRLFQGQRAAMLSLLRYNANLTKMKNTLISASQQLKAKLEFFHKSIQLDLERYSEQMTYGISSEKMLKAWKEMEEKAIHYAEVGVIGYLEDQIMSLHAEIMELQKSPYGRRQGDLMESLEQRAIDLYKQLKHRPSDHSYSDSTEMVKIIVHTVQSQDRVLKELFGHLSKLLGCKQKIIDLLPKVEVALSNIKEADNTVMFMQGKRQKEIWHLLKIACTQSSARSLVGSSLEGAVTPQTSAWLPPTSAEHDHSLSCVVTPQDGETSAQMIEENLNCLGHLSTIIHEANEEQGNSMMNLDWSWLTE

[3] = target: T3, Serine/threonine-protein kinase TBK1 (Homo sapiens) (UniProt Q9UHD2)
T3 sequence (whole entry): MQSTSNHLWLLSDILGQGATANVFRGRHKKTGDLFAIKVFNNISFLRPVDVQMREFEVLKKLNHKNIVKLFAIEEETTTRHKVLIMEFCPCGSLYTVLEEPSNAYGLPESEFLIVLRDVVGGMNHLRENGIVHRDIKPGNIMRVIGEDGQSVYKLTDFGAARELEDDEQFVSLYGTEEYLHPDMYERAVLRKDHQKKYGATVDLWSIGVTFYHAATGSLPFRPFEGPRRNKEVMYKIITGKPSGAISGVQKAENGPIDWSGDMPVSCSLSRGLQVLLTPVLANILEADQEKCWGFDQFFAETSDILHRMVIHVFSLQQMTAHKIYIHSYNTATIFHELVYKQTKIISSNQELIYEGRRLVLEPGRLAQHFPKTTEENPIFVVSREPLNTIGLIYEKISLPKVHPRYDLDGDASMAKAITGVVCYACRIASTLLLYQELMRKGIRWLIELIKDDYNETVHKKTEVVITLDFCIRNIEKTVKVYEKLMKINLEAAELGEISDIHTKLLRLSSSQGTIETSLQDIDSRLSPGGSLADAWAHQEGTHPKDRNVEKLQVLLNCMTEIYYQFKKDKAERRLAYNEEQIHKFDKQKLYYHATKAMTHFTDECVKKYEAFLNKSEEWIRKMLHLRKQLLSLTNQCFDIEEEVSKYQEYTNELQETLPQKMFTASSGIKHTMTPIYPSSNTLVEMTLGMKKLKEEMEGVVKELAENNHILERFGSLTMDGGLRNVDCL

| inhibition [1] | inhibition [2] | inhibition [3] | SMILES |
| --- | --- | --- | --- |
| 2% | -8% | 33% and 39% | Cc1ccc(NC(=O)c2ccnc(N3CCCC3)c2)cc1-c1ccc(C(=O)NCC2CC2)cc1 |
| -2% and 0% | -6% | -6% and -7% | CC(=O)Nc1cccc(C#Cc2cncnc2Nc2ccc(OCc3cccc(F)c3)c(Cl)c2)c1 |
| 0% and -2% | -4% | 2% and 3% | Fc1ccc(-c2c(-c3ccncc3)nc3n2CCS3)cc1 |
| 6% and 3% | -2% and -3% | 1% | ON=C1CCc2cc(-c3nc(C4CCNCC4)[nH]c3-c3ccncc3)ccc21 |
| -5% and -4% | 4% and 3% | 23% and 27% | O=C1Nc2ccccc2/C1=C/Nc1ccc(-n2cncn2)cc1 |
| -3% and 2% | 5% and 3% | 3% and 5% | CS(=O)(=O)Nc1ccc(-c2ccc3c(NC(=O)C4CC4)n[nH]c3c2)cc1 |
| -5% and -4% | 4% and 3% | 2% and 0% | COc1cccc(COc2cc(-n3cnc4ccccc43)sc2C(N)=O)c1 |
| -2% | -3% | 61% and 57% | NS(=O)(=O)c1ccc(N/N=C2\C(=O)Nc3ccc(-c4cnco4)cc32)cc1 |
| 4% and -2% | 4% and 5% | -2% and 0% | CC1=C(C(=O)Nc2ccc3[nH]ncc3c2)C(c2ccc(F)cc2)NC(=O)N1 (stereo unspecified) |
| -3% and -2% | 2% | 27% | Cc1ccc(Nc2ccnc(Nc3cccc(C(N)=O)c3)n2)cc1O |
| -1% and 1% | -4% and -3% | 9% and 11% | CCCN1CCCC(c2ccc(Nc3nc(Nc4cc(F)ccc4C(N)=O)c4cc[nH]c4n3)c(OC)c2)C1 (stereo unspecified) |
| -2% and 2% | -5% | 45% and 44% | NC(=O)c1cccc(Nc2nccc(Nc3cccc4[nH]ncc34)n2)c1 |
| -4% and 2% | 2% | -7% and -1% | NS(=O)(=O)c1cccc(-c2cc3ccncc3cc2OCc2ccccc2)c1 |
| 1% and 0% | -1% | 11% and 9% | O=C(O[C@H]1CN[C@H](C#Cc2cc3ncnc(Nc4ccc5c(ccn5Cc5cc(F)ccc5F)c4)c3s2)C1)N1CCOCC1 |
| -5% | 4% | 0% | CN1CCN(CCCNc2nc3ccc(Oc4ccc(NC(=O)Nc5cc(C(F)(F)F)ccc5F)cc4)cc3[nH]2)CC1 |
| -9% and -7% | -1% and -2% | 10% and 14% | CCN(CC)Cc1ccc(Nc2nccc(-c3cnn4ncccc34)n2)cc1 |
| -2% and -1% | 1% | 3% and 1% | NC(=O)c1ccc2c(-c3ccnc(NCCCO)n3)c(-c3ccc(F)cc3)nn2c1 |
| -1% and 4% | 2% and 3% | 1% and -2% | COc1ccc2ncnc(Nc3ccc(OCc4ccccc4)cc3)c2c1 |

The next lines start with the molecule.

| SMILES | inhibition [1] | inhibition [2] | inhibition [3] |
| --- | --- | --- | --- |
| O=C1Nc2ccc(C(=O)c3ccco3)cc2C1=Cc1cc(Cl)c(O)c(Cl)c1 | -8% and -7% | 5% and 4% | 86% and 87% |
| N#Cc1c(NC(=O)CN2CCOCC2)sc2c1CCCC2 | -1% and -3% | 0% and 1% | -6% |
| CCS(=O)(=O)c1ccc(OC)c(Nc2ncc(-c3cccc(OC)c3)o2)c1 | 3% and 0% | 1% | 11% and 8% |
| CCS(=O)(=O)c1ccc(OC)c(Nc2ncc(-c3ccccc3Cl)o2)c1 | -7% and -4% | -3% and 4% | 2% and 6% |
| NS(=O)(=O)c1ccc(NC=C2C(=O)Nc3ccc4ncsc4c32)cc1 | -3% and -2% | 2% and 6% | 89% and 88% |
| Cc1cc(O)cc(C)c1/C=C/c1cncc(-c2nn[nH]n2)c1 | -4% and -5% | 4% and 5% | 3% |
| FC(F)(F)c1cccc(-c2nn3ncccc3c2-c2ccnc(Nc3ccc4c(c3)OCCO4)n2)c1 | -3% and -2% | 1% and 2% | 3% and 1% |
| CNC(=O)c1cncc(/C=C/c2c(C)cccc2C)c1 | 1% and -2% | -6% and -4% | 3% and -1% |
| CN(C)c1cc2c(Nc3ccc4nc(Cc5ccccc5)[nH]c4c3)ncnc2cn1 | -2% and -3% | 2% and 1% | 2% and 6% |
| CCn1c(-c2nonc2N)nc2c(C#CC(C)(C)O)nc(CN3CCCC3)cc21 | -3% and 3% | -7% and 2% | 24% and 20% |
| Nc1ccc(C#Cc2cncnc2Nc2ccc(OCc3cccc(F)c3)c(Cl)c2)cc1 | 7% and -3% | 2% and -8% | 1% and 2% |
| O=C1Nc2ccccc2/C1=C1\CCc2cc(O)ccc21 | -3% and -4% | 1% and 0% | 25% and 30% |
| COc1cc2ncn(-c3cc(OCc4cccs4)c(C(N)=O)s3)c2cc1OC | -5% and -6% | 5% and 3% | 35% and 33% |
| CN(C)c1cc2c(Nc3ccc4c(cnn4Cc4ccccc4)c3)ncnc2cn1 | -3% and -2% | 1% and 2% | 2% and -3% |
| CS(=O)(=O)CCNCc1cc(-c2cc3c(Nc4ccc(OCc5cccc(F)c5)c(Cl)c4)ncnc3s2)cs1 | -8% and 5% | 16% and 15% | 0% |
| CCOc1nccc2c1nc(-c1nonc1N)n2CC | -2% and -3% | 15% and 18% | -2% and 0% |
| NS(=O)(=O)c1cccc(N/C=C2\C(=O)Nc3ccccc32)c1 | -4% and -1% | 1% and 2% | 31% and 38% |
| CS(=O)(=O)CCNCc1nc(-c2ccc3ncnc(Nc4ccc(F)c(Cl)c4)c3c2)cs1 | -2% and -3% | 2% | 1% and -2% |
| O=C1Nc2ccc(I)cc2C1=Cc1cc(Br)c(O)c(Br)c1 | 0% | 10% and 11% | 3% |
